Patent US20240391954A1, “MC4R AGONIST PEPTIDES” (The Regents of the University of Michigan, priority 2021, published 2024)
Values joined by “and” are separate entries in the source; they are usually repeats but may differ in a detail not shown here. Identical values can stand only once. Positions of bridges follow the written chain, without caps; N, C: chain ends. Non-standard residues stand in square brackets, D forms with d. Residues, ends and D or L forms follow the SMILES beside them. Nle = CCCC[C@H](N)C(=O)O

Legend:
[1] = Plasma protein binding (Centrifree ultrafiltration); assay type: in vitro ADME
Experimental: Solutions of test compound in DMSO were prepared at 1 mM, 100 uM and 10 uM, 5 ul of each solution of test compound was added to 495 uL plasma, and incubated at 25° C. for 5 min. Sample was added to a Centrifree® device, then centrifuged at 2000× g for 20 min to obtain desired filtrate volume. Initial plasma samples and ultrafiltrates were subjected to LC-MS/MS. % Free peptide=(concentration of ultrafiltrates/concentration of plasma)×100%. % Bound=100%−% Free

human MC3R = target: T1, human MC3R (Homo sapiens, UniProt P41968); experiment: split-luciferase cAMP sensor assay, agonist mode (measurement window 1), hMC3R; assay type: cell-based
T1 construct: expressed in transfected cells; host or cells: HEK-293 cells stably expressing the GScAMP22F split-luciferase cAMP sensor (parent reporter line from Promega); MC3R clone generated in-house, G418 selection
T1 sequence (P41968 whole entry): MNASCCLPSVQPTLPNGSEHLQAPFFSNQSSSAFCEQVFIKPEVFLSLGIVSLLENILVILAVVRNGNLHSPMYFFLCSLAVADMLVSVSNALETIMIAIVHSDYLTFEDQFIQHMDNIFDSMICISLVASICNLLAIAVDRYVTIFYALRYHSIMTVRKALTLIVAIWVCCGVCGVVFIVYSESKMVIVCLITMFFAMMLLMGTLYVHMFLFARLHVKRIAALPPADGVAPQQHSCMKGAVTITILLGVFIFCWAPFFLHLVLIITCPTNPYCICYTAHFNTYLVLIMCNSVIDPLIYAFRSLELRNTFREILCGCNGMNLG
How it was run: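 Live stable cell lines carrying receptor plus GloSensor cAMP22f split-luciferase, loaded with 4% D-luciferin in serum-free medium (~1% serum estimated during assay). Luminescence recorded during in-line peptide addition; direct agonist effect read in window 1, with 20 μM forskolin as normalization reference. EC50 from four-parameter sigmoid fit.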

[2] = Pharmacokinetics: plasma and brain concentration after IP injection; assay type: in vivo, mouse; conditions: IP 15 mg/kg; for Brain concentration, individual mice 1-3 / Plasma concentration, individual mice 1-3: 15 mg/kg
Experimental: FIG. 5. Pharmacokinetic data for an exemplary peptide relative to setmelanotide. Peptides at 1.5 mg/mL in PBS containing 10% DMSO and 10% PEG-400 were given by IP injection (15 mg/kg) to female CD-1 mice (n=15). At the given time points (0.5 h, 2 h, 4 h, 7 h and 24 h), brain samples were taken out and frozen at −80° C. immediately for later preparation and analysis, and blood samples were collected using heparinized calibrated pipettes. Blood samples were centrifuged at 15000 rpm for 10 min. Subsequently, blood plasma was collected from the upper layer. The plasma was frozen at −80° C. for later analysis. Peptide concentrations at times indicated were determined by LC MS/MS, using non-zero standards in blank Plasma and Brain Samples.
The drug at 1.5 mg/mL in PBS containing 10% DMSO and 10% PEG-400 was given by IP injection (15 mg/kg). At the given time points (0.5 h, 2 h, 4 h, 7 h and 24 h), brain samples were taken out and frozen at −80° C. immediately for later preparation and analysis, and blood samples were collected using heparinized calibrated pipettes. Blood samples were centrifuged at 15000 rpm for 10 min. Subsequently, blood plasma was collected from the upper layer. The plasma was frozen at −80° C. for later analysis.
The analytical curves were constructed using non-zero standards in the blank Plasma and Brain Samples. A blank sample (matrix sample processed without internal standard) was used to exclude contamination. The linear regression analysis of CTX1227/setmelanotide were performed by plotting the peak area ratio (y) against the CTX1227/setmelanotide concentration (x) in ng/mL, respectively.

Mouse plasma stability = assay type: in vitro ADME; conditions: pooled mouse plasma, 37° C.
Experimental: FIG. 3. Results of plasma stability testing for control peptides. Compounds shown were incubated in mouse plasma at 37° C. at 1 μM concentrations. 40 ul aliquots were removed at the times indicated and the reactions stopped with the addition of 160 μL cold acetonitrile containing 200 ng/ml of peptide internal standard (IS). The incubation solution was centrifuged at 3500 rpm for 10 minutes to precipitate protein. LC/MS/MS analysis was used to determine the % peptide remaining.
Pooled mouse plasma was prepared and stored at −80° C, prior to use, 396 μL mouse plasma was incubated at 37° C. for 5 minutes in 1.5 mL microcentrifuge tubes. 4 μL of 100 μM test or control compound/peptide was added to each tube and incubated for 0.5, 15, 30, 60, 120, or 240 minutes. An aliquot of 40 μL of each reaction was stopped by the addition of 4 volume of cold acetonitrile containing 200 ng/mL of […] solution was centrifuged at 3500 rpm for 10 minutes to precipitate protein. The supernatant was used for LC/MS/MS analysis. The natural log peak area ratio (compound peak area/internal standard peak area) was plotted against time and the gradient of the line determined.

Work on `CCCC[C@H](NC(=O)[C@H](CCCNC(=N)N)NC(C)=O)C(=O)N[C@H]1CSSC[C@@H](C(N)=O)NC(=O)[C@H](Cc2c[nH]c3ccccc23)NC(=O)[C@H](CCCNC(=N)N)NC(=O)[C@@H](Cc2ccccc2)NC(=O)[C@H](Cc2c[nH]cn2)NC1=O` [CTX-1227, Arg-Nle-cyclo(Cys-His-D-Phe-Arg-Trp-Cys)] (Ac-R[Nle]CH[dF]RWC-NH2; disulfide 3-8 (inferred)) yielded a fraction unbound at 5 min, 0.1 µM ([1]; 0.1 uM) of 0.5, a fraction unbound at 5 min, 1 µM ([1]; 1.0 uM) of 0.53 and a fraction unbound at 5 min, 10 µM ([1]; 10.0 uM) of 0.46. The Emax (human MC3R; % maximal activation, agonist mode, read-out: MC3R cAMP % max activation) was 96%, the EC50 (human MC3R; HEK-293 cells stably expressing hMC3R, agonist mode, read-out: MC3R cAMP EC50) was 2.8 nM and the “MC4R selectivity vs MC3R” value (human MC3R; MC4R versus MC3R) was 11. The “Brain concentration, individual mice 1-3” value ([2]; 0.5 h, brain, individual animals) was 99 ng/g and 263.5 ng/g and 182 ng/g, the “Plasma concentration, individual mice 1-3” value (“Plasma concentration” below) ([2]; 0.5 h, plasma, individual animals) was 20900 ng/mL and 25000 ng/mL and 68700 ng/mL and the “Brain concentration, individual mice 1-3” value ([2]; 2 h, brain, individual animals) was 287.5 ng/g and 176.5 ng/g and 327.5 ng/g. The “Plasma concentration” value ([2]; 2 h, plasma, individual animals) was 50200 ng/mL and 17300 ng/mL and 20700 ng/mL, the “Brain concentration, individual mice 1-3” value ([2]; 4 h, brain, individual animals) was 158 ng/g and 142.5 ng/g and 210 ng/g and the “Plasma concentration” value ([2]; 4 h, plasma, individual animals) was 19400 ng/mL and 23300 ng/mL and 33400 ng/mL. For the same compound, the “Brain concentration, individual mice 1-3” value ([2]; 7 h, brain, individual animals) was 223 ng/g and 224.5 ng/g and 119 ng/g, the “Plasma concentration” value ([2]; 7 h, plasma, individual animals) was 9360 ng/mL and 9210 ng/mL and 2880 ng/mL and the “Brain concentration, individual mice 1-3” value ([2]; 24 h, brain, individual animals) was “BlQ and BLQ (2×)”. The “Plasma concentration” value ([2]; 24 h, plasma, individual animals) was “BLQ”, the tissue level at time at 0.5 h ([2]; female, CD-1, mouse, mice, 0.5 h, brain, mean of 3) was 182 ng/g and the level at 0.5 h ([2]; female, CD-1, mouse, mice, 0.5 h, plasma, mean of 3) was 38200 ng/mL. The tissue level at time at 2 h ([2]; female, CD-1, mouse, mice, 2 h, brain, mean of 3) was 264 ng/g, the level at 2 h ([2]; female, CD-1, mouse, mice, 2 h, plasma, mean of 3) was 29400 ng/mL and the tissue level at time at 4 h ([2]; female, CD-1, mouse, mice, 4 h, brain, mean of 3) was 170 ng/g. For the same compound, the level at 4 h ([2]; female, CD-1, mouse, mice, 4 h, plasma, mean of 3) was 25400 ng/mL, the tissue level at time at 7 h ([2]; female, CD-1, mouse, mice, 7 h, brain, mean of 3) was 189 ng/g and the level at 7 h ([2]; female, CD-1, mouse, mice, 7 h, plasma, mean of 3) was 7150 ng/mL. For the same compound, the level at 24 h ([2]; female, CD-1, mouse, mice, 24 h, plasma, individual animals, read-out: Plasma concentration, individual mice 1-3) was 15 ng/mL and the half-life at 1 µM (Mouse plasma stability) was 1.05 h.
